Measured values: US11666619B2, “Composition for treating atopic dermatitis including herbal medicine mixed extract” (University—Industry Cooperation Group of Kyung Hee …, priority 2016, dated 2023)

How the values were obtained:
BALB/c mouse = assay: DNCB-induced AD-like skin lesions in BALB/c mouse: clinical signs, skin thickness, spleen weight, body weight; format: in vivo; conditions: DNCB-treated BALB/c mice
Source text: To examine effects of KAJD on atopic dermatitis (AD), DNCB (2,4-dinitrochlorobenzene) was applied to the skin of a BALB/c mouse to induce AD-like symptoms. In many studies regarding atopic dermatitis, models in which atopy-like dermatitis was induced using chemical antigens such as DNCB, 2,4-dinitrofluorobenzene, 2,4,6-trinitrothlorobenzene, etc. are used ([…]. et al, Immunology, 1995, 86, 545-550). In detail, 6-week-old BALB/c mice (20±2 g) were used, which were purchased from Orient Inc. (Seongnam, Korea). Mice were randomly divided into control groups or experimental groups (no treatment, DNCB, DNCB+tacrolimus, DNCB+KAJD), each group including five mice. All mice were raised under a pathogen-free environment with free access to sterile distilled water and solid feed. All mouse experiments were approved by the Experimental Animal Ethics Committee of Kyung Hee University (Approval Number: KHUASP (SE)-14-014). To induce AD-like skin lesions, the dorsal skin of the mouse was shaved, and 100 μL of 2% DNCB was applied thereto using a patch of 1 cm×1 cm twice a week. KAJD or tacrolimus, which is an existing therapeutic agent for AD, was periodically applied to the DNCB-applied skin for 2 weeks. At 28 days, all mice were sacrificed by CO2 inhalation. To examine changes in the skin of the BALB/c mouse by KAJD, clinical signs were observed once a week for 4 weeks. Severities of AD-like lesions in the dorsal skin, which are indicated by erythema/bleeding, edema, exfoliation/dryness, and excoriation/erosion, were scored according to a scale of 0 to 3 (0: absent, 1: mild, 2: moderate, 3: severe). Individual scores were added, and clinical skin scores were defined according to a scale of 0 to 12.

white blood cells (WBCs) = assay: Number of white blood cells in blood of DNCB-treated mice (hematology analyzer); format: in vivo, mouse; conditions: FIG. 5
Protocol: High levels of white blood cells (WBCs) are observed in most atopic dermatitis patients. Therefore, to examine therapeutic effects of KAJD on atopic dermatitis, the number of WBCs in the blood of mice was analyzed after treatment with KAJD. In detail, whole blood samples were collected from the heart of a mouse, and stored in a Vacutainer™ tube containing EDTA (BD Science, NJ, USA). The number of WBCs, lymphocytes, monocytes, eosinophils, basophils, or neutrophils was analyzed using a HEMAVET 950 hematology analyzer (Drew Scientific, Inc., Oxford, USA).

[1] = system: serum IgE and inflammatory cytokines; assay: Serum IgE and inflammatory cytokines in DNCB-treated mice (sandwich ELISA); format: in vivo, mouse; conditions: FIG. 6
Protocol: One of the features of AD is high expression levels of blood IgE and inflammatory cytokines. Therefore, to analyze a mechanism of anti-inflammatory activity of KAJD, levels of blood IgE and inflammatory cytokines in DNCB-treated mice were analyzed. In detail, expression levels were analyzed by sandwich ELISA using a BD PharMingen mouse or human ELISA set (Pharmingen, San Diego, Calif., USA). A plate was coated with a capture antibody contained in an ELISA coating buffer (Sigma, St. Louis, Mo., USA), and stored at 4° C. for one day. The plate was washed with 0.05% PBS-Tween 20, and subsequently, blocked with 10% FBS-containing PBS at 20° C. for 1 hour. A standard antigen or sample serially diluted with a dilution buffer (10% FBS-containing PBS) was put in the plate, followed by incubation at 20° C. for 1 hour. Thereafter, biotin-conjugated anti-mouse IgE and SAv-HRP (streptavidin-horseradish peroxidase conjugate) was added to the plate, followed by incubation at 20° C. for 1 hour. Lastly, a TMB (tetramethylbenzidine) substrate solution was added to the plate, and incubated under dark conditions for 15 minutes, and then the reaction was terminated with a 2 N H2SO4 solution. Optical density was measured using an ELISA reader (Versa Max, Molecular Devices, CA, USA) at 450 nm.

## C=CC[C@@H]1/C=C(\C)C[C@H](C)C[C@H](OC)[C@H]2O[C@@](O)(C(=O)C(=O)N3CCCC[C@H]3C(=O)O[C@H](/C(C)=C/[C@@H]3CC[C@@H](O)[C@H](OC)C3)[C@H](C)[C@@H](O)CC1=O)[C@H](C)C[C@@H]2OC [tacrolimus]
BALB/c mouse; FIG. 2C
  scleroderma (thickness of the dorsal skin): remarkably decrease
BALB/c mouse; FIG. 2D
  spleen weight: remarkably decrease
BALB/c mouse; topical application, FIG. 2A
  severe symptoms of the skin (erythema/bleeding, edema, exfoliation/dryness, excoriation/erosion): remarkably reduce severe symptoms of the skin
BALB/c mouse; scale of 0 to 12, applied to DNCB-applied skin for 2 weeks, FIG. 2B
  clinical score (severity score of AD-induced skin lesions): 3.29±0.76
White blood cells (WBCs)
  number of WBC subtypes including lymphocytes, monocytes, eosinophils, basophils, and neutrophils: decrease the number of WBC subtypes
  number of white blood cells: considerably decrease
[1]
  serum IgE: considerably inhibit
  serum inflammatory cytokines (IL-6, IL-10, IL-12): considerably inhibit
